# Molecular target: SARS-CoV-2 M^pro (3CL^pro), MBP-tagged 3CL protease (Severe acute respiratory syndrome coronavirus 2, UniProt P0DTD1)
# Test: biochemical
compound,measurement,value
"O=C(O)c1cc(C(=O)O)c2c(n1)C(=O)C(=O)c1cc(C(=O)O)[nH]c1-2 [PQQ, 4,5-dioxo-4,5-dihydro-1H-pyrrolo[2,3-f] quinoline-2,7,9-tricarboxylic acid]",IC50,2800 nM

# Reference: PMC10688161 (ACS Omega, 2023)
